pIC50: −log10 of the molar value. Counter-ions that a name gives are not always drawn.
What was measured:
KIT D816V = KIT D816V (Homo sapiens, UniProt P10721, D816V); assay: KIT (D816V) mutant biochemical enzymatic activity inhibition assay (EZReader 2 mobility shift) at APPKM for ATP; conditions: 0.3 nM enzyme, 20 μM ATP (APPKM), 1 μM Src tide, 25° C., 60 minutes; read-out: Kit D816V @ ATP Km IC50
From the text: PDGFRα and KIT enzymatic activity was monitored using the Perkin Elmer electrophoretic mobility shift technology platform, the EZReader 2.
Within the linear, steady-state phase of the kinase enzymatic reaction, the mixed pool of phosphorylated (product) and non-phosphorylated (substrate) peptides was passed through the microfluidic system of the PerkinElmer EZ Reader 2, under an applied electric potential difference. The presence of the phosphate group on the product peptide provided a difference in mass and charge between that of the substrate peptide, resulting in a separation of the substrate and product pools in the sample (Perrin et al., Expert Opin Drug Discovery 2010, Jan. 5(1):51-63).
As the product and substrate peptide mixture passes the lasers within the instrument, these pools are detected (λex=488 nm, λem=568 nm) and resolved as separate peaks. The ratio between these peaks reflects the activity of the compound at that concentration, in that well, under those conditions.
All test articles were dissolved in 100% DMSO at a stock concentration of 10 mM. A 100×, 10-point, 4-fold serial dilution of all test compounds was created in 100% DMSO, starting at a relevant concentration, usually 1 mM. A volume of 130 nL of each concentration was transferred to the relevant well of a 384-well assay plate (Greiner 781 201) using a TTPLabtech Mosquito nano-liter dispenser. Using the Multidrop, the remaining constituents of the reaction were then added to the 130 nL of compound as follows:
The reaction was stopped by the addition of 70 μl of Stop buffer (100 mM HEPES pH 7.5, 0.015% Brij 35, 35 mM EDTA and 0.2% of Coating Reagent 3, Caliper Lifesciences). The plate was read on a Caliper EZReader 2. For biochemical D816V and D842V activity, the following designations are used: ≤0.30 nM=A; ≥0.31 and <1.4 nM=B; ≥1.4 nM=C; and ND=not determined.

[1] = Brain penetration in rats: brain to plasma ratio (Kp,brain); format: in vivo; conditions: rat; Sprague-Dawley rats (3/compound), IV infusion 1 mg/kg/hr over 8 hours, plasma and brain homogenate at 24 hours, Cbrain/Cplasma, mean
From the text: To understand the brain penetration, brain to plasma ratios of the compounds were obtained in Sprague-Dawley (SD) rats. In vivo equilibrium distribution between blood and brain in preclinical species such as rats is a commonly used parameter to evaluate brain penetration. Kp,brain is the ratio of concentrations in brain and blood (Cbrain/Cplasma). The compound's passive diffusion characteristics, its affinity for membrane transporters at the blood-brain barrier (BBB), and the relative drug binding affinity differences between the plasma proteins and brain tissue influence the Kp,brain. Compounds with Kp,brain smaller than 0.1 have restricted access to the CNS, whereas compounds with Kp,brain greater than 0.3-0.5 are considered to have good brain penetration and compounds with Kp,brain greater than 1 freely cross the BBB (Expert Opin. Drug Delivery (2016) 13 (01): 85-92).
The brain penetration of the compounds disclosed herein was measured in Sprague-Dawley rats (3/compound). The animals received IV infusion of 1 mg/kg/hr of the compound over 8 hours via jugular vein cannulation. At 24 hours, blood was collected via tail vein bleeding or cardiac puncture (under anesthesia) and centrifuged to obtain plasma samples. Brain tissues were collected and homogenized with phosphate-buffered saline (PBS). […]

[2] = Unbound brain to plasma ratio (Kpuu,brain), from brain and plasma concentrations and equilibrium dialysis unbound fractions; format: in vivo, Sprague-Dawley rats; conditions: Sprague-Dawley, brain homogenate / plasma (unbound), intravenous, 1 mg/kg/hr; rat; calculated from brain and plasma concentrations and fu,brain (brain homogenate equilibrium dialysis), mean
Method: The brain penetration of the compounds disclosed herein was measured in Sprague-Dawley rats (3/compound). The animals received IV infusion of 1 mg/kg/hr of the compound over 8 hours via jugular vein cannulation. At 24 hours, blood was collected via tail vein bleeding or cardiac puncture (under anesthesia) and centrifuged to obtain plasma samples. Brain tissues were collected and homogenized with phosphate-buffered saline (PBS). The concentrations of the compounds were obtained in the plasma and brain homogenates by LC-MS/MS analysis.
Rat plasma protein binding of the tested compounds were evaluated in vitro using an equilibrium dialysis method. The tested compounds were assessed in 100% plasma in a dialysis block for 5 hours at 37° C. Samples from the donor and receiver sides were analyzed by LC-MS/MS. Plasma protein bound and unbound fractions were calculated using the following equations— […]
where: [Donor]5h is measured donor concentration at 5-hour; [Received]5h is measured receiver concentration at 5-hour; fb* is bound fraction determined from plasma; fu,p* is calculated unbound fraction for plasma. […]
Similarly, rat brain protein binding of the tested compounds was also evaluated in vitro using equilibrium dialysis method. […] of the compound was assessed in brain homogenate in a dialysis block for 5 hours at 37° C. Samples from the donor and receiver sides were analyzed by LC-MS/MS. […]

KIT D816V, sequence (P10721 26-976 D816V): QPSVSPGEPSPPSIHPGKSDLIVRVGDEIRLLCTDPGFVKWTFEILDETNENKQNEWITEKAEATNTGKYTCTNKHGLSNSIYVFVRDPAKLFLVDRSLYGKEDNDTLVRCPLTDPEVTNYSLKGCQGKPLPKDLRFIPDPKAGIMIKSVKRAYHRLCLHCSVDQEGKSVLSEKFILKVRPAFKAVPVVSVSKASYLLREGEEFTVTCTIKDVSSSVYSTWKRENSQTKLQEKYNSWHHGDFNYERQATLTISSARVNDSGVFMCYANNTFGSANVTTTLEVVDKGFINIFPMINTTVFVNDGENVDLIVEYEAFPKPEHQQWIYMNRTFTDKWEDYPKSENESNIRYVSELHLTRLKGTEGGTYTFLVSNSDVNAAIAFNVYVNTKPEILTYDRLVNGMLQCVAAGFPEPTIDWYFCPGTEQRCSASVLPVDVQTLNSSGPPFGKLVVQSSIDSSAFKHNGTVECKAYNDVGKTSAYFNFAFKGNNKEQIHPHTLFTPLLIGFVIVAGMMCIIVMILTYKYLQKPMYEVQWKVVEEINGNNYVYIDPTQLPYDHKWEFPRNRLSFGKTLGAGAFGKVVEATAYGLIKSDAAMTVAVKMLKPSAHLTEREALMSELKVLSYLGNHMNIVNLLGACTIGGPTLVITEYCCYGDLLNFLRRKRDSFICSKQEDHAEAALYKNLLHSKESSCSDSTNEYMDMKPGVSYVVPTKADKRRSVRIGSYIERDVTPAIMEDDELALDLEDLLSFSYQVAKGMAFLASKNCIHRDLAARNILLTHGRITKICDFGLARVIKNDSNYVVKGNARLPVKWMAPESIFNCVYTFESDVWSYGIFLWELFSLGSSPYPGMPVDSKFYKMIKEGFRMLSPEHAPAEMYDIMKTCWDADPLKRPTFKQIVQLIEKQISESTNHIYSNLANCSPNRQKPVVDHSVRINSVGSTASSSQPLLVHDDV

Row | Structure (SMILES) | pIC50 (KIT D816V) | Kp at 24 h [1] | Kp uu at 24 h [2]
1 | C[C@H](O)Cn1cc(-c2cc3c(N4CCN(c5ncc([C@@](C)(N)c6ccc(F)cc6)cn5)CC4)ncnc3[nH]2)cn1 [Compound 5, (S)-1-(4-(4-(4-(5-((S)-1-amino-1-(4-fluorophenyl)ethyl)pyrimidin-2-yl)piperazin-1-yl)-7H-pyrrolo[2,3-d]pyrimidin-6-yl)-1H-pyrazol-1-yl)propan-2-ol hydrochloride] | 8.85 to 9.51 |  | 
2 | C[C@](N)(c1ccc(F)cc1)c1cnc(C2=CCN(c3ncnn4cc(-c5cnn(CCO)c5)cc34)CC2)nc1 [Compound 1, (S)-2-(4-(4-(4-(5-(1-amino-1-(4-fluorophenyl)ethyl)pyrimidin-2-yl)-3,6-dihydropyridin-1(2H)-yl)pyrrolo[2,1-f][1,2,4]triazin-6-yl)-1H-pyrazol-1-yl)ethan-1-ol] | 8.85 to 9.51 | 0.133 | 0.017
3 | C[C@@H](O)Cn1cc(-c2cc3c(N4CCN(c5ncc([C@@](C)(N)c6ccc(F)cc6)cn5)CC4)ncnc3[nH]2)cn1 [Compound 4, (R)-1-(4-(4-(4-(5-((S)-1-amino-1-(4-fluorophenyl)ethyl)pyrimidin-2-yl)piperazin-1-yl)-7H-pyrrolo[2,3-d]pyrimidin-6-yl)-1H-pyrazol-1-yl)propan-2-ol] | 8.85 to 9.51 |  | 
4 | C[C@](N)(c1ccc(F)cc1)c1cnc(N2CCN(c3ncnc4[nH]c(-c5cnn(CCO)c5)cc34)CC2)nc1.Cl [Compound 2, (S)-2-(4-(4-(4-(5-(1-amino-1-(4-fluorophenyl)ethyl)pyrimidin-2-yl)piperazin-1-yl)-7H-pyrrolo[2,3-d]pyrimidin-6-yl)-1H-pyrazol-1-yl)ethan-1-ol hydrochloride] | ≥ 9.52 | 0.045 | 0.01
5 | C[C@](N)(c1ccc(F)cc1)c1cnc(N2CCN(c3ncnc4[nH]c(-c5cnn(CC6COC6)c5)cc34)CC2)nc1 [Compound 6, (S)-1-(4-fluorophenyl)-1-(2-(4-(6-(1-(oxetan-3-ylmethyl)-1H-pyrazol-4-yl)-7H-pyrrolo[2,3-d]pyrimidin-4-yl)piperazin-1-yl)pyrimidin-5-yl)ethan-1-amine hydrochloride] | 8.85 to 9.51 |  | 
6 | C[C@](N)(c1ccc(F)cc1)c1cnc(N2CCN(c3ncnc4[nH]c(-c5cnn(C6COC6)c5)cc34)CC2)nc1 [Compound 3, (S)-1-(4-fluorophenyl)-1-(2-(4-(6-(1-(oxetan-3-yl)-1H-pyrazol-4-yl)-7H-pyrrolo[2,3-d]pyrimidin-4-yl)piperazin-1-yl)pyrimidin-5-yl)ethan-1-amine] | ≥ 9.52 |  | 
